Measurements as given in patent US4329352A, “Piperidine derivatives of 3-hydroxy-thiophene-2-carboxylic acid esters and pharmaceutical formulations containing these compounds” (BASF Aktiengesellschaft, priority 1979, dated 1982).
Like-named read-outs stand apart in the source and are kept apart here.

Experiments:
in vivo = type: in vivo, rat (Sprague Dawley); conditions: rat, in vivo; rats, oral; decimal-geometric dosage progression; read-out: Maximum effect: Dose (maximum tolerated dose)
Procedure: (§1) To determine the anti-arrhythmic activity, the substance is administered orally to rats (Sprague Dawley, weight 200-250 g) 45 minutes before the start of narcosis. The animals are narcotized with 100 mg/kg of sodium thiobutabarbital administered intraperitone-ally. The arrhythmogenic substance is aconitine which is infused intravenously, at a dosage rate of 0.005 mg/kg×min, 60 minutes after administration of the novel substance. In the case of untreated animals (N=52), arrhythmias are noted in the electrocardiogram after 2.74±0.07 min, and the occurrence of these can be delayed by anti-arrhythmic agents, to an extent which depends on the dose.
(§2) The dose which prolongs the infusion duration by 50%, ie. the ED 50%, is determined from the linear relationship between log dose (mg/kg) of test substance and relative prolongation of aconitine infusion duration (Δ%).
(§3) For further characterization of the substance, the anti-arrhythmic effect of the maximum tolerated dose is determined from the decimal-geometric dosage progression (factor ^3 .cuberoot.10) used in the experiments. In addition, the dose at which toxic symptoms (changes in the initial ECG, cyanosis or cramp) occur is determined. Moreover, the anti-arrhythmic activity of the compounds according to the invention is determined on isolated left atria of male guineapigs (Pirbright white, weight 350-450 g).

[1] = tested on: aconitine-induced arrhythmia; test: in vivo; type: in vivo, rat (Sprague Dawley)
Procedure: as §1, §2, §3

[2] = Toxicity in rats, oral administration: dose at which toxic symptoms (changes in the initial ECG, cyanosis or cramp) occur; type: in vivo, rat (Sprague Dawley); conditions: for TD50 / selectivity ratio: rat, in vivo; for selectivity ratio: read-out: Q (therapeutic range): quotient of toxic dose and anti-arrhythmically effective dose (ED 50%)
Procedure: as §1, §3

[3] = tested on: isolated left atria of male guineapigs; test: Anti-arrhythmic activity on isolated left guineapig atria (maximum driving rate); set-up: species or system guineapig (Pirbright white); conditions: for R.A. = relative activity (maximum sequence frequency): Procainamide = 1.00; for Maximum sequence frequency EC 50%: concentration which produces a 50% decrease in the maximum sequence frequency: Tyrode's solution pH 7.4, 32° C.
Procedure: As a criterion of the anti-arrhythmic action, the frequency (in Hz) at which the atria are just still able to follow the sequence of pulses (the maximum driving rate) is determined by automatic continuous increase in frequency. The concentration which produces a 50% decrease in maximum driving rate, ie. the ED 50%, is calculated from the linear relationship between log concentration (mg/l) and relative decrease in maximum driving rate (Δ%).

[4] = tested on: isolated left atria of male guineapigs; test: Negatively inotropic effect on isolated left guineapig atria (decrease in contraction amplitude); set-up: species or system guineapig (Pirbright white); conditions: for R.A. = relative activity (force of contraction): Procainamide = 1.00; for Force of contraction EC 25%: concentration which produces a 25% decrease in the force of contraction: Tyrode's solution pH 7.4, 32° C.
Procedure: Atria suspended in an organ bath (volume 125 ml) containing carbogen-saturated Tyrode's solution (pH 7.4, 32° C.) are prestressed with 1.0 g and are driven by square wave pulses of 1 Hz base rhythm and double stimulation threshold values (rheo base: 0.2-1.4 V, chronaxia: 0.3-0.5 msec).
Further, the concentration which produces a 25% decrease in amplitude, ie. the EC 25%, is determined, as a measure of the negatively inotropic effect, from the linear relationship between log concentration (mg/l) and relative change in contraction amplitude (Δ%).

[5] = rats, oral, maximum tolerated dose
[6] = rats, oral, greater than procainamide
[7] = isolated guineapig atria, compared with procainamide

SMILES | MTD (in vivo) [mg/kg] | R.A. = relative activity (effective dose) ([1]; Procainamide = 1.00, rats, oral) | R.M.E. = relative maximum effect ([1]; Procainamide = 1.00, rats, oral, maximum tolerated dose) | ED50 ([1]; Rattus norvegicus, po, read-out: ED 50%: dose which prolongs the duration of aconitine infusion by 50%) [mg/kg] | Maximum effect: prolongation of duration of aconitine infusion, Δ %, at the maximum tolerated dose [1, 5] [%] | anti-arrhythmic effect on aconitine-induced arrhythmia, relative to procainamide [1, 6] [times] | TD50 ([2]; rats, oral, changes in initial ECG, cyanosis or cramp, read-out: Toxicity: dose whose administration produces the first toxic symptoms) [mg/kg] | selectivity ratio ([2]; rats, oral) | therapeutic range (toxic dose / ED 50%), relative to procainamide [2, 6] [times] | R.A. = relative activity (maximum sequence frequency) ([3]; isolated guineapig atria) | anti-arrhythmic effect on isolated guineapig atria, relative to procainamide ([3]; as great as that of procainamide) [times] | Q: quotient of EC 25% force of contraction decrease : EC 50% maximum driving rate ([3]; isolated guineapig atria) | Maximum sequence frequency EC 50%: concentration which produces a 50% decrease in the maximum sequence frequency ([3]; isolated guineapig atria) [µg/mL] | difference between anti-arrhythmic and negatively inotropic effect (quotient EC 25% : EC 50%), in words [3, 7] | therapeutic range as far as effects on guineapig atria are concerned, in words [3, 7] | R.A. = relative activity (force of contraction) [4] | Force of contraction EC 25%: concentration which produces a 25% decrease in the force of contraction [4] [µg/mL] | TD50 ([2]; po) [mg/kg]
COC(=O)c1sccc1OCC(O)CN1CCC(O)(c2ccccc2)CC1 (stereo not shown) [Example 1, 3-[2-hydroxy-3-(4-phenyl-4-hydroxy-piperidino)-propoxy]-thiophene-2-carboxylic acid methyl ester] | 215 | 3.36 | 2.19 | 46.8 | 296 | 3 to 4 | 464 | 9.9 | 1.6 | 68.7 | 69 | 2.6 | 1.47 | substantially greater than for procainamide | greater therapeutic range | 14.8 | 3.80 | –
CCN(CC)CCNC(=O)c1ccc(N)cc1 [Procainamide, procainamide, reference compound] | – | – | – | – | 135 | – | – | 6.4 | – | 1.00 | – | 0.56 | 101 | – | – | 1.00 | 56.4 | 1000
